Source: patent US12193460B2, “Highly soluble steviol glycosides” (PureCircle USA Inc., priority 2016, dated 2025)
Read-outs that look alike come from different tables or passages of the source.

What was measured:
[1] = Prakash et al., 2008, cited from earlier work
[2] = cited from earlier work; for Rate of dissolution in H2O at 25° C.: grade in words
[3] = room temperature (25° C.); related art; cited from earlier work
[4] = Water solubility in RO water at room temperature (25° C.); type: physicochemical; conditions: g per 100 g solvent
Description: Hereinafter, unless specified otherwise, the solubility of material is determined in RO (reverse osmosis) water at room temperature (25° C.). Where the solubility is expressed as “%” it to be understood as number of grams of material soluble in 100 grams of solvent.
The material is deemed soluble at certain concentration if the produced solution has <10 FAU (Formazin Attenuation Unit) turbidity value.

Row | SMILES | Rate of dissolution in H2O at 25° C. [2] | Rate of dissolution in H2O at 25° C. (% dissolved) ([2]; in 5 minutes) | also measured
1 | C=C1C[C@@]23CC[C@H]4[C@@](C)(CCC[C@@]4(C)C(=O)O[C@@H]4O[C@H](CO)[C@@H](O)[C@H](O)[C@H]4O)[C@@H]2CC[C@]1(O[C@@H]1O[C@H](CO)[C@@H](O)[C@H](O[C@@H]2O[C@H](CO)[C@@H](O)[C@H](O)[C@H]2O)[C@H]1O[C@@H]1O[C@H](CO)[C@@H](O)[C@H](O)[C@H]1O)C3 [Form 1, Rebaudioside A] | Very low |  | solubility (in words) ([1]; listed as hydrate form of Rebaudioside A): lowest solubility; Rate of dissolution in H2O at 25° C. (% dissolved) ([2]; in 60 minutes): (<0.2% in 60
2 | C=C1C[C@@]23CC[C@H]4[C@@](C)(CCC[C@@]4(C)C(=O)O[C@@H]4O[C@H](CO)[C@@H](O)[C@H](O)[C@H]4O)[C@@H]2CC[C@]1(O[C@@H]1O[C@H](CO)[C@@H](O)[C@H](O[C@@H]2O[C@H](CO)[C@@H](O)[C@H](O)[C@H]2O)[C@H]1O[C@@H]1O[C@H](CO)[C@@H](O)[C@H](O)[C@H]1O)C3 [Form 2, Rebaudioside A] | Intermediate | (<30% in 5 | 
3 | C=C1C[C@@]23CC[C@H]4[C@@](C)(CCC[C@@]4(C)C(=O)O[C@@H]4O[C@H](CO)[C@@H](O)[C@H](O)[C@H]4O)[C@@H]2CC[C@]1(O[C@@H]1O[C@H](CO)[C@@H](O)[C@H](O[C@@H]2O[C@H](CO)[C@@H](O)[C@H](O)[C@H]2O)[C@H]1O[C@@H]1O[C@H](CO)[C@@H](O)[C@H](O)[C@H]1O)C3 [Form 3, Rebaudioside A] | High | > 30% | 
4 | C=C1C[C@@]23CC[C@H]4[C@@](C)(CCC[C@@]4(C)C(=O)O[C@@H]4O[C@H](CO)[C@@H](O)[C@H](O)[C@H]4O)[C@@H]2CC[C@]1(O[C@@H]1O[C@H](CO)[C@@H](O)[C@H](O[C@@H]2O[C@H](CO)[C@@H](O)[C@H](O)[C@H]2O)[C@H]1O[C@@H]1O[C@H](CO)[C@@H](O)[C@H](O)[C@H]1O)C3 [Form 4, Rebaudioside A] | High | > 35% | solubility (in words) ([1]; listed as rebaudioside A amorphous forms): high solubility
5 | C=C1C[C@@]23CC[C@H]4[C@@](C)(CCC[C@@]4(C)C(=O)O[C@@H]4O[C@H](CO)[C@@H](O)[C@H](O)[C@H]4O[C@@H]4O[C@H](CO)[C@@H](O)[C@H](O)[C@H]4O)[C@@H]2CC[C@]1(O[C@@H]1O[C@H](CO)[C@@H](O)[C@H](O[C@@H]2O[C@H](CO)[C@@H](O)[C@H](O)[C@H]2O)[C@H]1O[C@@H]1O[C@H](CO)[C@@H](O)[C@H](O)[C@H]1O)C3 [Rebaudioside D] |  |  | water solubility [3]: less than 0.05%
6 | C=C1C[C@@]23CC[C@H]4[C@@](C)(CCC[C@@]4(C)C(=O)O[C@@H]4O[C@H](CO)[C@@H](O)[C@H](O[C@@H]5O[C@H](CO)[C@@H](O)[C@H](O)[C@H]5O)[C@H]4O[C@@H]4O[C@H](CO)[C@@H](O)[C@H](O)[C@H]4O)[C@@H]2CC[C@]1(O[C@@H]1O[C@H](CO)[C@@H](O)[C@H](O[C@@H]2O[C@H](CO)[C@@H](O)[C@H](O)[C@H]2O)[C@H]1O[C@@H]1O[C@H](CO)[C@@H](O)[C@H](O)[C@H]1O)C3 [Rebaudioside M] |  |  | water solubility [3]: about 0.1%; solubility in water ([4]; listed as Crystalline Rebaudioside M): 0%-0.1
7 | C=C1C[C@@]23CC[C@H]4[C@@](C)(CCC[C@@]4(C)C(=O)O[C@@H]4O[C@H](CO)[C@@H](O)[C@H](O[C@@H]5O[C@H](CO)[C@@H](O)[C@H](O)[C@H]5O)[C@H]4O[C@@H]4O[C@H](CO)[C@@H](O)[C@H](O)[C@H]4O)[C@@H]2CC[C@]1(O[C@@H]1O[C@H](CO)[C@@H](O)[C@H](O[C@@H]2O[C@H](CO)[C@@H](O)[C@H](O)[C@H]2O)[C@H]1O[C@@H]1O[C@H](CO)[C@@H](O)[C@H](O)[C@H]1O)C3 [rebaudioside M] |  |  | solubility in water [4]: 2%
